# US20210236512A1 (ZARODEX THERAPEUTICS LIMITED, priority 2018, published 2021)
# “And” between values parts separate entries of the source, which are not always exact repeats. Equal entries are not always repeated. “Also recorded” adds a separate entry of the source.
# Legend:
# [1] = test system: collagen-induced arthritis (CIA); assay: Mouse collagen-induced arthritis (CIA) model: onset, clinical score and paw-swelling; type: in vivo, DBA/1 mice
# Source text: Adult (age 13-15 weeks) DBA/1 male mice were purchased from Envigo (Horst, Netherlands). […] 1. […] All experiments were approved by the Clinical Medicine Animal Welfare and Ethical Review Body (AWERB) and by the UK Home Office. DBA/1 mice were immunised with bovine type II collagen in CFA and monitored daily for onset of arthritis. […] Controls received vehicle (saline) alone. Treatment of mice commenced in one experiment on day 1 after immunisation and in a second experiment on day 15 after immunisation. Clinical scores and paw-swelling were monitored for 10 days following onset of arthritis. A clinical scoring system was used as follows. Arthritis severity was scored by an experienced, non-blinded investigator as follows: 0=normal, 1=slight swelling and/or erythema, 2=pronounced swelling, 3=ankylosis. […] Data were analyzed by one-way ANOVA with Tukey's or Dunnett's multiple comparison test or two-way ANOVA with Tukey's multiple comparison test as appropriate. All calculations were made using GraphPad Prism software.
# [2] = in vivo; cited from earlier work
# [3] = test system: anti-type II collagen IgG1 and IgG2a; assay: Mouse CIA model: specific anti-collagen immunoglobulin by ELISA; type: in vivo, DBA/1 mice
# [4] = test system: B cell subsets in spleen and inguinal lymph nodes; assay: Mouse CIA model: B cell subsets in spleen and lymph nodes by FACS; type: in vivo, DBA/1 mice
# [5] = test system: Vaccine specific-IgG (Haemophilus influenza B, Pneumococcus, Tetanus); details: human, in vivo
# [6] = First observational study: infection questionnaire, antibiotic courses and hospital admission rates; type: in vivo, human
# [7] = test system: serum/plasma IgG, IgA, IgM; details: cited from earlier work
# [8] = test system: circulating total IgG, IgA and IgM; assay: Second observational study (interim analysis): circulating immunoglobulins and pneumococcal-specific IgG; type: in vivo, human
# [9] = test system: total peripheral blood B-cells isolated from healthy donors; type: cell-based, human; details: clozapine 25-350 ng/ml, norclozapine 15-200 ng/ml, haloperidol 2-25 ng/ml
# Description: The experiment was performed from four independent donors.
# [10] = test system: circulating B cell subsets; assay: Second observational study (interim analysis): circulating B cell subsets by FACS; type: in vivo, human
# [11] = test system: Immunoglobulin levels (IgG, IgA and IgM); assay: First observational study: serum immunoglobulin levels by nephelometry, clozapine-treated vs clozapine-naive patients; type: in vivo, human
# [12] = clozapine treatment for six weeks (Hinze-Selch et al., 1998)
# [13] = sub-group A: all diagnoses, all smoking, secondary causes not excluded, n=123
compound,measurement,setting,value
"CN1CCN(C2=Nc3cc(Cl)ccc3Nc3ccccc32)CC1 [Clozapine, clozapine]",Swelling of the first affected paw,[1]; 10 mg/kg from day 1,reduced
same,Onset of arthritis post-immunisation,[1]; 5 or 10 mg/kg IP daily from day 1 or day 15,significantly effective in delaying the onset of arthritis
same,"Arthritis onset, treatment from day 1","[1]; both doses (5, 10 mg/kg) from day 1",extremely effective in delaying arthritis onset
same,Overall clinical score,"[1]; both doses, administered on day 1",reduced
same,Incidence of CIA,"[1]; most apparent when dosed just after CII immunisation, FIG. 26",reduces the incidence
same,Total number of affected paws compared to vehicle control,[1]; significant with dosing at D1,reduced
same,LD50,[2],200 mg/kg
same,Reduction of anti-type II collagen IgG1,[3]; 10 mg/kg from day 15,reaching statistical significance
same,Serum anti-type II collagen IgG2a,"[3]; 5 or 10 mg/kg from day 1 or day 15, single time point",no significant impact
same,Levels of anti-type II collagen IgG1,[3]; across all doses tested,nominal reductions
same,Proportion of B220+ B cells in spleen,[4]; 10 mg/kg from day 1,significantly reduced
same,Proportion of plasma cells in spleen,[4]; 10 mg/kg given on day 1,significant reduction
same,Level of GL7 expression on follicular B cells in lymph node,"[4]; all clozapine treatment groups vs vehicle, dose- and time-dependent",significantly decreased
same,Percentage of B220+ B cells in lymph nodes,[4]; all doses and time points (5 or 10 mg/kg from day 1 or day 15),significantly lower
same,Lymph node follicular B cells (B220+IgD-Fas+GL7hi),[4]; all doses/both time points,Strikingly significant reductions
same,Plasma cell numbers in lymph node,[4]; all doses/times,no significant effect
same,Plasma cells as a proportion of live cells in spleen compared to control,[4]; every other dose/time evaluated,nominally lower values
same,Failed to develop an IgG response above >=50 mg/L following Pneumovax II,[5],73%
same,Failing to exceed the >=0.1 IU/mL post-vaccination Tetanus-IgG level,[5],1/12
same,Failing to mount a Haemophilus-IgG response >=1 mcg/ml post-Menitorix (HiB/MenC) vaccination,[5],42%
same,"IgG to Haemophilus influenza B (HiB) <1 mcg/ml at initial assessment, patients",[5],75%
same,"Pneumococcus-IgG <50 mg/L at initial assessment, patients",[5],94%
same,"Response to haemophilus and/or pneumococcal vaccination, individual referred patient",[5],Failure to responds to; also recorded: Durable pneumococcal; also recorded: Non-durable
same,"Responses to vaccination impaired, patients / patients assessed",[5],10/11
same,"Tetanus-IgG <0.1 IU/mL at initial assessment, patients",[5],38%
same,Admitted to hospital with infection,[6]; clozapine group (vs 0.06 in controls),0.12 per patient year
same,"Admission frequency in 12-month period, all cause: patients admitted",[6]; clozapine-treated patients,14 patients
same,"Admission frequency in 12-month period, infection-related: admissions",[6]; clozapine-treated patients,15
same,"Admission frequency in 12-month period, infection-related: patients admitted",[6]; clozapine-treated patients,10 patients
same,"Antibiotic courses per year: 1-5 courses, percentage of patients",[6]; clozapine-treated patients,33.0%
same,"Antibiotic courses per year: >5 courses, percentage of patients",[6]; clozapine-treated patients,5.3%
same,"Antibiotic courses per year: nil courses, percentage of patients",[6]; clozapine-treated patients,61.7%
same,"Antibiotic courses per year: >5 courses, percentage of patients","[6]; clozapine-treated patients, listed as clozapine",5.3%
same,"IgA, IgG, absolute neutrophil count and white blood cell count vs control group","[7]; Lozano et al., 2016",no differences
same,IgA or IgM concentrations or pattern of autoantibodies,[7]; [12],no significant effect
same,Serum concentrations of IgG,[7]; [12],significant increases
same,Mean plasma levels of IgM vs control group,"[7]; outpatients on clozapine for at least five years (Lozano et al., 2016)",overall decrease
same,"Levels of circulating total IgG, IgA and IgM vs clozapine naive",[8]; FIG. 6A-C,Significantly reduced
same,IgG antibodies against pneumococcus vs clozapine naive,[8]; FIG. 7,trend to lower
same,Functional or phenotypic maturation of activated B cells to an early PC state,[9],no consistent inhibitory effect
same,Ability of differentiated ASCs to secrete antibody (total IgM/IgG ELISA),[9]; day 6 and day 9,no consistent effect
same,Overall CD19+ B cell numbers vs control,[10]; FIG. 8A-B,not significantly different
same,Naive (CD19+ CD27-) B cells as a proportion of total CD19+ B cells,[10]; FIG. 9A-C,Small increase
same,Overall memory B cell pool or IgMhi IgDlo memory B cell subpopulation,"[10]; FIG. 10A-C, 12A-C",without perturbation
same,Circulating levels of transitional B cells or marginal zone B cells,"[10]; FIG. 13A-C, 14A-C",No significant difference
same,Class-switched memory B cells (CD27+ IgM- IgD- as % B),"[10]; P=0.06 vs control, FIG. 11A-C",Strong trends to a specific reduction
same,Levels of plasmablasts,"[10]; P=0.07 vs control clozapine naive, FIG. 15A-C",Strong trends to reduction
same,"Concentrations / distribution of serum IgG, IgA and IgM vs clozapine-naive control group",[11]; FIG. 1A-D,significantly reduced; also recorded: leftward shift (reduction)
same,Effect of duration of clozapine therapy on serum IgG levels,"[11]; p 0.014, not observed in clozapine-naive patients",associated with lower serum IgG levels; also recorded: progressively reduced IgG levels
same,"Serum IgA <0.5 g/L, percentage of patients",[11]; [13],1.6%
same,"Serum IgA <0.6 g/L, percentage of patients",[11]; [13],2.4%
same,"Serum IgA <0.7 g/L, percentage of patients",[11]; [13],6.5%
same,"Serum IgA <0.8 g/L (below reference range 0.8-4.0 g/L), percentage of patients",[11]; [13],13.1% and 13.0%
same,"Serum IgG <3 g/L, percentage of patients",[11]; [13],0.8%
